Data as given in PubChem BioAssay AID743119 (The Scripps Research Institute Molecular Screening Center, 2013).

What was measured:
[1] = biological target: Acyl-protein thioesterase 2 (Homo sapiens) (UniProt O95372); test: in situ APT1/APT2 inhibitor potency by ABPP – HeLa cells, in situ treatment, fluorescence gel, late-stage follow-up (AID 743119); details: gel-based ABPP FP-Rh fluorescence, LYPLA2
[2] = biological target: Acyl-protein thioesterase 1 (Homo sapiens) (UniProt O75608); test: as above; details: gel-based ABPP FP-Rh fluorescence, LYPLA1
Sequence of Acyl-protein thioesterase 1 (Homo sapiens) (O75608 whole entry, looked up): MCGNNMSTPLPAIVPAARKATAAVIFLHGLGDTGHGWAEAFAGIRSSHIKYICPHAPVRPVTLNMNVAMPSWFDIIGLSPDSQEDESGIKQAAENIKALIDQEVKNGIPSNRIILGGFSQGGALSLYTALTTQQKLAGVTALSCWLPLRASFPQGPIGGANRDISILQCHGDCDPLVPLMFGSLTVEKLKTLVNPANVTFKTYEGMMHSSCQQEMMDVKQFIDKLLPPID

Sequence of Acyl-protein thioesterase 2 (Homo sapiens) (O95372 whole entry, looked up): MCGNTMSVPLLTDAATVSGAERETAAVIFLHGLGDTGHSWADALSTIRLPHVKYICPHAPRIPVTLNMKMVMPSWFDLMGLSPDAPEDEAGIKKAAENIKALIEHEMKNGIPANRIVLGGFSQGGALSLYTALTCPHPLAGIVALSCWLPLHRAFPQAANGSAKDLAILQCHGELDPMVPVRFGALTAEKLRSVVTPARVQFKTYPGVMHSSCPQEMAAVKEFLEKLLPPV

- IC50 [1]: 143 nM
- IC50 [2]: 87 nM
Compound: O=C(ON1C(=O)C2CN(C(=O)N3CCOCC3)CCN2C1=O)N1CCC(CCc2ccc(Cl)cc2)CC1 (configuration not stated)
